Measured values reported in ChEMBL document CHEMBL3603775, “Design, synthesis and evaluation of benzotriazole derivatives as novel antifungal agents” (Bioorg Med Chem Lett, 2015).

How the values were obtained:
Candida albicans [1] = test: Antifungal activity against Candida albicans ATCC 10231 at 100 ug/ml after 48 hrs by cup plate method; assay type: functional; settings: ATCC 10231, 48 h
[2] = target: T1, Lanosterol 14-alpha demethylase (Candida albicans (strain SC5314 / ATCC MYA-2876) (Yeast), UniProt P10613); test: Inhibition of Candida albicans lanosterol 14-alpha demethylase assessed as reduction of ergosterol biosynthesis at 10 ug/ml after 18 hrs by UV spectroscopy analysis
[3] = target: T1, Lanosterol 14-alpha demethylase; test: Inhibition of Candida albicans lanosterol 14-alpha demethylase assessed as reduction of ergosterol biosynthesis at 50 ug/ml after 18 hrs by UV spectroscopy analysis
Candida albicans [4] = test: Antifungal activity against Candida albicans ATCC 10231 at 50 ug/ml after 48 hrs by cup plate method; assay type: functional; settings: ATCC 10231, 48 h
Candida albicans [5] = test: Antifungal activity against Candida albicans ATCC 10231 at 10 ug/ml after 48 hrs by cup plate method; assay type: functional; settings: ATCC 10231, 48 h
[6] = target: T1, Lanosterol 14-alpha demethylase; test: Inhibition of Candida albicans lanosterol 14-alpha demethylase assessed as reduction of ergosterol biosynthesis at 100 ug/ml after 18 hrs by UV spectroscopy analysis

T1 sequence (P10613 whole entry): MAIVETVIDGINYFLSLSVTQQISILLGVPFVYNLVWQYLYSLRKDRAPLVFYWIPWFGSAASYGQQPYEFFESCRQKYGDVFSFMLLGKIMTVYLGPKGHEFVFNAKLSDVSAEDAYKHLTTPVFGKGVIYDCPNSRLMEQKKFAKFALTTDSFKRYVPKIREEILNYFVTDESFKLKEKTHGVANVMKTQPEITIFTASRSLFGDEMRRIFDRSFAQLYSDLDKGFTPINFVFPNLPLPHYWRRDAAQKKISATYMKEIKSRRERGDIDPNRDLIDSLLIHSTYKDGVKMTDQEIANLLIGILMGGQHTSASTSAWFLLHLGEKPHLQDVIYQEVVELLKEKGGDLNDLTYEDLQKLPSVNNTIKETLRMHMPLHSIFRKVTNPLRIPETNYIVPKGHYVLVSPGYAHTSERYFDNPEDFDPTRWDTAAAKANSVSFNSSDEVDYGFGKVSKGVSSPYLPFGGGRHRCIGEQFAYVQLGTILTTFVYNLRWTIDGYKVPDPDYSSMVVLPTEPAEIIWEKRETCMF

`c1ccc(CNCc2ccc3[nH]nnc3c2)cc1` was tested, and the inhibition at 100 µg/mL (Candida albicans [1]) was 67.7%, the inhibition at 10 µg/mL [2] was 46.5% and the inhibition at 50 µg/mL [3] was 48.5%. For the same compound, the inhibition at 50 µg/mL (Candida albicans [4]) was 27.4%, the inhibition at 10 µg/mL (Candida albicans [5]) was 12.5% and the inhibition at 100 µg/mL [6] was 66%.
Compound `CCCCNCc1ccc2[nH]nnc2c1` has an inhibition at 100 µg/mL (Candida albicans [1]) of 64.3%, an inhibition at 10 µg/mL [2] of 1.55% and an inhibition at 50 µg/mL [3] of 45.5%. The inhibition at 50 µg/mL (Candida albicans [4]) was 30%, the inhibition at 10 µg/mL (Candida albicans [5]) was 12.5% and the inhibition at 100 µg/mL [6] was 47.8%.
`OC(Cn1cncn1)(Cn1cncn1)c1ccc(F)cc1F` [FLUCONAZOLE] showed an inhibition at 100 µg/mL (Candida albicans [1]) of 65.5%, an inhibition at 10 µg/mL [2] of 45.5% and an inhibition at 50 µg/mL [3] of 47.7%. The inhibition at 50 µg/mL (Candida albicans [4]) was 30%, the inhibition at 10 µg/mL (Candida albicans [5]) was 12.5% and the inhibition at 100 µg/mL [6] was 51.2%.
With `O=C(NCc1ccccc1)c1ccc2[nH]nnc2c1` the inhibition at 100 µg/mL (Candida albicans [1]) was 54.1%, the inhibition at 10 µg/mL [2] was 15.9% and the inhibition at 50 µg/mL [3] was 33.1%. The inhibition at 50 µg/mL (Candida albicans [4]) was 28.5%, the inhibition at 10 µg/mL (Candida albicans [5]) was 4.16% and the inhibition at 100 µg/mL [6] was 41.3%.
With `Cc1ccccc1NCc1ccc2[nH]nnc2c1` the inhibition at 100 µg/mL (Candida albicans [1]) was 67.7%, the inhibition at 10 µg/mL [2] was 49.9% and the inhibition at 50 µg/mL [3] was 65.8%. It also gave an inhibition at 50 µg/mL (Candida albicans [4]) of 34.2%, an inhibition at 10 µg/mL (Candida albicans [5]) of 0% and an inhibition at 100 µg/mL [6] of 65.8%.
`Cc1ccccc1OCc1ccc2[nH]nnc2c1` was tested, and the inhibition at 100 µg/mL (Candida albicans [1]) was 66.1%, the inhibition at 10 µg/mL [2] was 50.5% and the inhibition at 50 µg/mL [3] was 54%. For the same compound, the inhibition at 50 µg/mL (Candida albicans [4]) was 36.4%, the inhibition at 10 µg/mL (Candida albicans [5]) was 0% and the inhibition at 100 µg/mL [6] was 54.4%.
Work on `CCCCNC(=O)c1ccc2[nH]nnc2c1` yielded an inhibition at 100 µg/mL (Candida albicans [1]) of 54.3%, an inhibition at 10 µg/mL [2] of 7.91% and an inhibition at 50 µg/mL [3] of 22.7%. For the same compound, the inhibition at 50 µg/mL (Candida albicans [4]) was 27.4%, the inhibition at 10 µg/mL (Candida albicans [5]) was 4.16% and the inhibition at 100 µg/mL [6] was 38.1%.
Compound `Cc1ccccc1NC(=O)c1ccc2[nH]nnc2c1` has an inhibition at 100 µg/mL (Candida albicans [1]) of 58.4%, an inhibition at 10 µg/mL [2] of 12.6% and an inhibition at 50 µg/mL [3] of 35.7%. It also gave an inhibition at 50 µg/mL (Candida albicans [4]) of 23.7%, an inhibition at 10 µg/mL (Candida albicans [5]) of 4.16% and an inhibition at 100 µg/mL [6] of 42.5%.
Compound `Cc1ccccc1NCn1nnc2ccccc21` has an inhibition at 100 µg/mL (Candida albicans [1]) of 50.2%, an inhibition at 10 µg/mL [2] of 11.6% and an inhibition at 50 µg/mL [3] of 29.4%. The inhibition at 50 µg/mL (Candida albicans [4]) was 4.16%, the inhibition at 10 µg/mL (Candida albicans [5]) was 0% and the inhibition at 100 µg/mL [6] was 31.3%.
